Results on 16 molecules are retold here after PubChem BioAssay (NCI).

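96-well plates; 48 h exposure; 5 concentrations. Endpoints by linear interpolation between flanking doses. Not reached: highest tested concentration assigned. Abbreviation: GI50, concentration required for 50% inhibition of growth. TGI marks complete inhibition of growth.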

Assay in all cases: growth of human tumour cells (NCI), 48 h
In assay [1] the test system is 786-0 renal.
The subject of assay [2] is HOP-62 NSCLC.
Assay [3] deals with UACC-257 melanoma.
The test system of assay [4] is UACC-62 melanoma.
The subject of assay [5] is SR leukemia.
The subject of assay [6] is SK-OV-3 ovarian.
The subject of assay [7] is NCI-H23 lung.
In assay [8] the test system is SK-MEL-28 melanoma.
Assay [9] concerns T-47D breast.

For the molecule `CN1CCC(O)C(CNC23CC4CC(CC(C4)C2)C3)C1` (stereo not given), the TGI in assay [1], in [2], in assay [3], in assay [4], in assay [5] and in assay [6] was above 100 µM in each case. Moreover, the TGI in [7] is above 100 µM.
Consider `COc1ccc(CN(O)C2C(CO)OC(n3cc(I)c(=O)[nH]c3=O)C2O)cc1` (stereo not given), for which the TGI in assay [1], in assay [2], in assay [8], in assay [3], in [4] and in assay [5] was above 100 µM in each case. For the same molecule, the TGI in assay [6] and in [7] was above 100 µM throughout.
For `CCN(CC)CCN(C)CC(C)(C)C(=O)/C=C/c1ccccc1`, the TGI was found to be 29.4 µM in [1]; 37 µM in assay [2]; 30.3 µM in [8]; 24.4 µM in assay [3]; 26.9 µM in assay [4]; 45.5 µM in [5]. Moreover, the figures for the TGI in assay [6] and in [7] were 26.6 µM and 25.7 µM, respectively.
Take `C=C1C(=O)OC2C1C(OC(=O)/C(=C/C)COC(C)=O)CC1(CO1)C1C(OC(=O)/C(=C/C)CO)C=C(C)C21` (stereo not given): the TGI was found to be 3.09 µM in assay [1]; 4.16 µM in assay [8]; 6.99 µM in [3]; 3.01 µM in assay [4]; 31.3 µM in assay [6]; 3.97 µM in assay [7].
With `O=C(CC1Sc2ccccc2NC1=O)Nc1cccc(Cl)c1` (stereo not given), the TGI in assay [1] is above 100 µM; in assay [8], 89.7 µM; in assay [3], above 100 µM; in [4] it was above 100 µM; in assay [5], 97.5 µM; in [7] it was above 100 µM.
Take `CC(C)NC(=O)OCc1nnn2c1C(OC(=O)NC(C)C)CC2` (stereo not given): the TGI in [1], in assay [8], in assay [3], in [4], in assay [5] and in assay [6] was above 100 µM in each case. In assay [7], this molecule gave a TGI above 100 µM.
`COCCNC(=O)C1C(=O)N(CCOC)C(=O)/C1=N/N` (stereo not given): the TGI in [1], in assay [8], in assay [3], in [4], in [5] and in [6] was above 100 µM throughout. In assay [7], the TGI was above 100 µM.
`CCCCNC(=S)Nn1c(-c2ccccc2)nc2ccccc2c1=O`: the TGI in assay [1], in assay [2], in assay [8], in [3], in [4] and in [6] was above 100 µM throughout. Also, the TGI in [7] is above 100 µM.
Turning to `COc1ccc(C(=O)O/N=C2\CCCC\C2=C/c2ccccc2)cc1`, the TGI in assay [1] was above 100 µM; in assay [2] it was above 100 µM; in [8], above 100 µM; in [4], above 100 µM; in assay [6], above 100 µM; in assay [7] it was 41.5 µM.
`CC(=O)NNc1nc(C)c(C(/C=C/c2ccc(/C=C/C(=N\NC(=O)c3ccncc3)c3sc(NNC(C)=O)nc3C)cc2)=N/NC(=O)c2ccncc2)s1`: the TGI in assay [1], in [2], in assay [8], in assay [3], in assay [4] and in assay [6] was above 100 µM each time. In [7], this molecule registered a TGI above 100 µM.
For `CCOC(=O)c1cc2c(n1Cc1cccc(OC)c1)-c1oncc1CC2`, the GI50 in assay [1] was 4.29 µM; in assay [2], 0.86 µM; in [8], 0.97 µM; in assay [3] it was 39.6 µM; in assay [4], 0.541 µM; in assay [6] it was 2.42 µM. The GI50 in [9] was 0.61 µM; in assay [7] it was 3.42 µM. The TGI in assay [1], in [2], in assay [8], in assay [3], in [4] and in [6] was above 100 µM throughout. The TGI in [9] was 97.2 µM; in assay [7], above 100 µM.
For `CN(NC(=O)/C(=C/c1ccc(O)cc1)NC(=O)c1ccccc1)c1ccnc2cc(Cl)ccc12`, the TGI worked out at 35.8 µM in assay [1]; 30.1 µM in [2]; 38.1 µM in [8]; 33.9 µM in assay [3]; 31.8 µM in [4]; 10.4 µM in assay [5]. The TGI stood at 36.6 µM in assay [6] and 45.6 µM in [9].
For the molecule `CCS[C@H]1NC(=O)C1[C@H](C)O[Si](C)(C)C(C)(C)C` (stereo not given in full), the TGI in [1], in [2], in [8], in assay [3], in assay [4] and in [7] was above 100 µM each time.
In the case of `COC(=O)C1Cc2c([nH]c3ccccc23)[C@H](CC(C)C)N1` (stereo not given in full), the TGI in assay [1], in assay [2], in assay [8], in assay [3], in assay [4] and in assay [5] was above 100 µM in each case. The TGI in assay [6] and in [7] was above 100 µM in each case.
As for `CC(=O)OC1COC(N2C(=O)C(=O)c3c(C)cc(Cl)nc32)C(OC(C)=O)C1OC(C)=O` (stereo not given), the TGI in assay [1], in [2], in assay [8], in [3], in assay [4] and in assay [5] was above 100 µM throughout. This molecule also returned a TGI in [7] above 100 µM.
In the case of `CCCCN(CCCC)C(=Nc1ccccc1)N(CCCC)CCCC`, the TGI in [1] turned out to be 15.2 µM; in assay [2], 20.5 µM; in [8], 11.8 µM; in assay [3], 37.5 µM; in assay [6] it was 22.6 µM; in [7], 5.97 µM.
